According to patent US20260200926A1, “TREM2 MODULATORS” (Muna Therapeutics ApS, priority 2022, published 2026):

How the values were obtained:
[1] = target: T1, Human TREM2 (Homo sapiens, UniProt Q9NZC2); assay: Human TREM2 activity: cellular phosphorylation of Syk (AlphaLISA SureFire Ultra p-SYK) in HEK293/DAP12+TREM2 stable cell line; format: cell-based; details: for Emax: HEK293, maximal response relative to reference agonist example 1B (remaining examples), read-out: Emax; for EC50: phospho-Syk AlphaLISA signal, HEK293/DAP12+TREM2 cells, concentration giving 50% of maximal response, read-out: EC50
T1 construct: expressed in transfected cells
T1 sequence (Q9NZC2 19-230): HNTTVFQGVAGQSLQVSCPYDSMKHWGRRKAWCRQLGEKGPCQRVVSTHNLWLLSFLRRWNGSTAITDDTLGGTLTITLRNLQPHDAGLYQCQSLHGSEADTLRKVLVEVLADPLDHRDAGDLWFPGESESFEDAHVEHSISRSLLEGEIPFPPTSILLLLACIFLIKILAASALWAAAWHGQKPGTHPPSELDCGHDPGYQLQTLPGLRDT
T1 sequence (O43914 22-113 partner): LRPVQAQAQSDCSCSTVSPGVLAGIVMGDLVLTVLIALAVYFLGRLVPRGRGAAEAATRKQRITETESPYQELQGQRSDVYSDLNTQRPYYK
Procedure, shortened: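 The read-out was p-Syk (Tyr525/526), measured by AlphaLISA in lysates of a stable HEK293/DAP12+TREM2 clone. Cells (10,000/well, plated the day before) received compound for 30 min at 37 °C. Dosing used 8 points in quadruplicate, top 100 μM with 1:6 dilution, 0.5% final DMSO.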

[2] = system: TREM2 regulated genes CXCL10, CCL2, CST7, and TMEM119; assay: Pharmacodynamics in hTREM2 knock-in mice: brain mRNA expression of TREM2 regulated genes by RT-qPCR; format: in vivo, humanized TREM2 knockin (hTREM2 KI) mice, C57BL/6 background; details: hTREM2 KI mice, oral gavage 50 mg/kg twice a day with a 10-hour interval, brains after 24 hours, RT-qPCR relative to GAPDH, normalized to vehicle
Procedure: Humanized TREM2 knockin (hTREM2 KI) mice were used for pharmacodynamics and pharmacokinetics studies. hTREM2 mice were generated by replacement of the mouse TREM2 gene that encodes the full-length protein by the human TREM2 gene in a C57BL/6 mouse strain background. Groups of 10 animals 8-10-week-old hTREM2 mice were treated via oral gavage administration with a TREM2 agonist compound at 50 mg/kg twice a day with a 10-hour interval. After 24 hours, mice were sacrificed and brains were isolated for RNA extraction used for reverse transcription to create complementary DNAs (cDNAs). The relative mRNA expression level of known TREM2 regulated genes were measured by quantitative reverse transcription polymerase chain reaction (RT-qPCR) relative to Glyceraldehyde-3-phosphate dehydrogenase (GAPDH) reference housekeeping gene. Expression of TREM2 regulated genes CXCL10, CCL2, CST7, and TMEM119 were measured as pharmacodynamic biomarkers after TREM2 agonist treatment normalized to vehicle control. These genes are known as microglial activation biomarkers and have previously been reported to respond to TREM2 antibody and small molecule agonist treatment in vivo.
Statistical Analyses. All graphs represent the mean of all samples in each group±SEM.
GraphPad Prism software was used to perform statistical analyses. P<0.05 was considered significant difference between vehicle and TREM2 small molecule treatment determined by T-test.
The relative expression levels for Compound 89A and vehicle were measured.

Row | Emax [1] [%] | EC50 [1] [nM] | SMILES | brain expression level of CCL2 as compared to vehicle control [2] [fold] | brain expression level of CST7 as compared to vehicle control [2] [fold] | brain expression level of CXCL10 as compared to vehicle control [2] | brain expression level of TMEM119 as compared to vehicle control [2] [fold]
1 | 75 to 110 | 10 to 100 | Cc1nc2c(-c3ccc(Cl)cc3F)nc(N3C[C@@H](c4cnn(C)c4)OC(C)(C)C3)nc2c(=O)n1C (single isomer, unassigned) [Example 89A] | 1.7 | 3.25 | about 2.5 fold | 1.8
2 | < 75 | > 1000 | Cc1nc2c(-c3ccc(Cl)cc3C#N)nc(N3CC(C)OC(c4cnn(C5CC5)c4)C3)cc2c(=O)n1C (centres unmarked) [Example 198, 5-chloro-2-(6-(2-(1-cyclopropyl-1H-pyrazol-4-yl)-6-methylmorpholino)-2,3-dimethyl-4-oxo-3,4-dihydropyrido[3,4-d]pyrimidin-8-yl)benzonitrile] |  |  |  | 
